Source: patent US11174251B2, “Compositions and methods for inhibition of the JAK pathway” (Rigel Pharmaceuticals, Inc., priority 2010, dated 2021)
Counter-ions that a name gives are not always drawn.

Target: T1, JAK3 (Homo sapiens, UniProt P52333)
T1 construct: The Ramos B-cell line was acquired from ATCC (ATCC Catalog No. CRL-1596); host or cells: Ramos B-cell line (human)
T1 sequence (P52333 1-1124): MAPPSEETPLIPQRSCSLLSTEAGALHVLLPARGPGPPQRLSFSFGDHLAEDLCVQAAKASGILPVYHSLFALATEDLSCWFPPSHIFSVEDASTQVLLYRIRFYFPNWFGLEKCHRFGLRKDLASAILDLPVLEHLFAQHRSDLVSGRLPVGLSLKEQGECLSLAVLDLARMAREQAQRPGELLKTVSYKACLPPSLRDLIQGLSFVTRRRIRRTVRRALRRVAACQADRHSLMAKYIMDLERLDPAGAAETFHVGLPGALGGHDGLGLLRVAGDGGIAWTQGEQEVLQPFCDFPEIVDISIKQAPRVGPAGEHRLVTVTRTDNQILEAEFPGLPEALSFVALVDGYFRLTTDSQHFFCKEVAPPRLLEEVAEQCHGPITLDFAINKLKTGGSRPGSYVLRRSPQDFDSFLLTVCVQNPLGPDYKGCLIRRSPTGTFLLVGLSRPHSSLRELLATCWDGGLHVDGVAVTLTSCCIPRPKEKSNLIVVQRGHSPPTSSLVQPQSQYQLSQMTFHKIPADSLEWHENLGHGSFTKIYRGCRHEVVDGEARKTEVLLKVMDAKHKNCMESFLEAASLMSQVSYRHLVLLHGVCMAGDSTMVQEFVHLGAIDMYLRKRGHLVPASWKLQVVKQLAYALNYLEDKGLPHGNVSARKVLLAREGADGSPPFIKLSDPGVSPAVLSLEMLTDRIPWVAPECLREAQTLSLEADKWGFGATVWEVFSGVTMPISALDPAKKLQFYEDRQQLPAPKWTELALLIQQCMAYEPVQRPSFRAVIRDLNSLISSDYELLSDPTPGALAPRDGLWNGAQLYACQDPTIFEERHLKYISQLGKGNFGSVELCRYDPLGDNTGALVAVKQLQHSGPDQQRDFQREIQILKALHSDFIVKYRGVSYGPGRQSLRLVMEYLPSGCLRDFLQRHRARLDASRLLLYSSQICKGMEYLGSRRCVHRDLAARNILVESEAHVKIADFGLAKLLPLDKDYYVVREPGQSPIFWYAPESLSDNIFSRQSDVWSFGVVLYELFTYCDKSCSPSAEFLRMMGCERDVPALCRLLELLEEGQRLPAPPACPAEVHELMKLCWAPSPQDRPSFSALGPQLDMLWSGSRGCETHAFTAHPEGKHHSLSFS
Assay: Assay for CD23 expression on Ramos B-cells stimulated by IL-4 (Table IV: ability to inhibit JAK3 activity)
Format: cell-based
Conditions: tested under conditions described in Example 3 (so in the source)
Procedure, shortened: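 Human Ramos B cells in RPMI with 5% serum, pre-incubated 1 h at 37 °C with compound or DMSO, then stimulated with IL-4 (final 50 units/mL) for 20–24 h. Surface CD23 upregulation measured by FACS staining as readout of JAK1/JAK3–Stat-6 signalling.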

Work on `Cc1cnc(Nc2cc(C)c(C)c(C)c2)nc1Nc1cc(-c2ccc3c(c2)OCO3)c2oc(=O)[nH]c2c1` [Compound I-88, 5-(2-(3,4,5-trimethylphenylamino)-5-methylpyrimidin-4-ylamino)-7-(benzo[d][1,3]dioxol-6-yl)benzo[d]oxazol-2(3H)-one] yielded an IC50 of over 10000 nM.

Molecule `CCc1ccc(Nc2ncc(C)c(Nc3ccc4oc(=O)[nH]c4c3)n2)c(F)c1OC` [Compound I-68, 5-[2-(4-Ethyl-2-fluoro-3-methoxy-phenylamino)-5-methyl-pyrimidin-4-ylamino]-3H-benzooxazol-2-one trifluoroacetate salt] has an IC50 of under 500 nM.

Work on `Cc1ccc(Nc2ncc(C)c(Nc3ccc4oc(=O)[nH]c4c3)n2)cc1C(=O)O` [Compound I-152, N2-(3-carboxy-4-methyl)phenyl-5-methyl-N4-(2-oxo-2,3-dihydro-1,3-benzoxazol-5-yl)-2,4-pyrimidinediamine] yielded an IC50 of 5000 to 10000 nM.

In the case of `COc1cc(Nc2ncc(F)c(Nc3ccc4oc(=O)[nH]c4c3)n2)cc(OC)c1C` [Compound I-194, 5-(2-(3,5-dimethoxy-4-methylphenylamino)-5-fluoropyrimidin-4-ylamino)benzo[d]oxazol-2(3H)-one trifluoroacetate salt], the IC50 is reported as 500 to 5000 nM.

Molecule `O=C(NC1CCC1)c1ccc(Nc2ncc(F)c(Nc3ccc4oc(=O)[nH]c4c3)n2)cc1` [Compound I-159, N-cyclobutyl-4-(5-fluoro-4-(2-oxo-2,3-dihydrobenzo[d]oxazol-5-ylamino)pyrimidin-2-ylamino)benzamide formate salt] has an IC50 of under 500 nM.

`COc1ccc(Nc2ncc(F)c(Nc3ccc4oc(=O)[nH]c4c3)n2)cc1-c1ccncc1` [Compound I-208, 5-(2-(4-methoxy-3-(pyridin-4-yl)phenylamino)-5-fluoropyrimidin-4-ylamino)benzo[d]oxazol-2(3H)-one formate salt] gave an IC50 of under 500 nM.

With `Cc1cnc(Nc2cc(C)c(C)c(C)c2)nc1Nc1ccc2oc(=O)n(COP(=O)(OCCN(C)C)OCCN(C)C)c2c1` [Compound I-134, N4-{3-bis[2-(N,N-dimethylamino)ethoxy]phosphinyloxymethyl-2-oxo-2,3-dihydro-1,3-benzoxazol-5-yl}-5-methyl-N2-(3,4,5-trimethyl)phenyl-2,4-pyrimidinediamine] the IC50 was over 10000 nM.

`CCN(CC)Cc1cnc(Nc2cc(C)c(C)c(C)c2)nc1Nc1ccc2oc(=O)[nH]c2c1` [Compound I-97, 5-(5-((diethylamino)methyl)-2-(3,4,5-trimethylphenylamino)pyrimidin-4-ylamino)benzo[d]oxazol-2(3H)-one ditrifluoroacetate salt] was tested, and the IC50 was 500 to 5000 nM.

With `Cc1cnc(Nc2cc(C)c(C)c(C)c2)nc1Nc1ccc2oc(=O)n(COP(=O)(O)O)c2c1` [Compound I-132, 5-methyl-N4-[3-(phosphonooxy)methyl-2-oxo-2,3-dihydro-1,3-benzoxazol-5-yl]-N2-(3,4,5-trimethyl)phenyl-2,4-pyrimidinediamine Tris salt] the IC50 was under 500 nM.

Molecule `COc1cc(Nc2ncc(F)c(Nc3ccc4oc(=O)[nH]c4c3)n2)c(F)cc1C` [Compound I-123, 5-(5-fluoro-2-(2-fluoro-5-methoxy-4-methylphenylamino)pyrimidin-4-ylamino)benzo[d]oxazol-2(3H)-one trifluoroacetate salt] has an IC50 of 5000 to 10000 nM.

In the case of `Cc1cnc(Nc2cc(C)c(C)c(C)c2)nc1Nc1cc(CN2CCN(C(=O)OC(C)(C)C)CC2)c2oc(=O)[nH]c2c1` [Compound I-94, tert-butyl 4-((5-(2-(3,4,5-trimethylphenylamino)-5-methylpyrimidin-4-ylamino)-2,3-dihydro-2-oxobenzo[d]oxazol-7-yl)methyl)piperazine-1-carboxylate], the IC50 is reported as 5000 to 10000 nM.

`Cc1cnc(Nc2ccc(N(C)C)cc2)nc1Nc1ccc2oc(=O)[nH]c2c1` [Compound I-25, 5-[2-(4-Dimethylamino-phenylamino)-5-methyl-pyrimidin-4-ylamino]-3H-benzooxazol-2-one] showed an IC50 of under 500 nM.

With `COC(=O)c1cnc(Nc2ccc(F)c(OC)c2F)nc1Nc1ccc2oc(=O)[nH]c2c1` [Compound I-48, 2-(2,4-Difluoro-3-methoxy-phenylamino)-4-(2-oxo-2,3-dihydro-benzooxazol-5-ylamino)-pyrimidine-5-carboxylic acid methyl ester trifluoroacetate salt] the IC50 was over 10000 nM.

`Cc1cnc(Nc2cc(C)c3c(c2)C(=O)OC3)nc1Nc1ccc2oc(=O)[nH]c2c1` [II-13, 5-methyl-N4-(2-oxo-2,3-dihydro-1,3-benzoxazol-5-yl)-N2-(1-oxo-1,3-dihydro-4-methylisobenzofuran-6-yl)-2,4-pyrimidinediamine] showed an IC50 of under 500 nM.

`COc1ccc(Nc2ncc(F)c(Nc3cc(F)c4oc(=O)[nH]c4c3)n2)cc1C` [Compound I-180, 5-(2-(4-methoxy-3-methylphenylamino)-5-fluoropyrimidin-4-ylamino)-7-fluorobenzo[d]oxazol-2(3H)-one trifluoroacetate salt] gave an IC50 of under 500 nM.

For `Cc1cnc(Nc2cc(C)c(C)c(CO)c2)nc1Nc1ccc2oc(=O)[nH]c2c1` [Compound I-147, N2-(3,4-dimethyl-5-hydroxymethyl)phenyl-5-methyl-N4-(2-oxo-2,3-dihydro-1,3-benzoxazol-5-yl)-2,4-pyrimidinediamine], the IC50 was under 500 nM.

`Cc1cc(Nc2ncc(C)c(Nc3ccc4oc(=O)[nH]c4c3)n2)cc(C)n1` [II-19, N2-(2,6-dimethylpyridin-4-yl)-5-methyl-N4-(2-oxo-2,3-dihydro-1,3-benzoxazol-5-yl)-2,4-pyrimidinediamine] gave an IC50 of under 500 nM.

With `COc1c(C)ccc(Nc2ncc(C)c(Nc3ccc4oc(=O)[nH]c4c3)n2)c1F` [Compound I-29, 5-[2-(2-Fluoro-3-methoxy-4-methyl-phenylamino)-5-methyl-pyrimidin-4-ylamino]-3H-benzooxazol-2-one trifluoroacetate salt] the IC50 was under 500 nM.

Molecule `CN1C/C=C\Cc2ccc(Nc3ncc(F)c(Nc4ccc5oc(=O)[nH]c5c4)n3)cc2C1=O` [II-4, (Z)-5-(5-fluoro-2-(2-methyl-1-oxo-1,2,3,6-tetrahydrobenzo[c]azocin-9-ylamino)pyrimidin-4-ylamino)benzo[d]oxazol-2(3H)-one formate salt] has an IC50 of under 500 nM.

Molecule `Cc1cc(Nc2ncc(CN3CCN(C)CC3)c(Nc3ccc4oc(=O)[nH]c4c3)n2)cc(C)c1C` [Compound I-100, 5-(2-(3,4,5-trimethylphenylamino)-5-((4-methylpiperazin-1-yl)methyl)pyrimidin-4-ylamino)benzo[d]oxazol-2(3H)-one] has an IC50 of 500 to 5000 nM.

`COc1cc(Nc2ncc([N+](=O)[O-])c(Nc3ccc4oc(=O)[nH]c4c3)n2)cc(C(F)(F)F)c1` [Compound I-47, 5-(2-(3-methoxy-5-(trifluoromethyl)phenylamino)-5-nitropyrimidin-4-ylamino)benzo[d]oxazol-2(3H)-one trifluoroacetate salt] was tested, and the IC50 was over 10000 nM.

`C#Cc1cccc(Nc2ncc(C)c(Nc3ccc4oc(=O)[nH]c4c3)n2)c1` [Compound I-31, 5-[2-(3-Ethynyl-phenylamino)-5-methyl-pyrimidin-4-ylamino]-3H-benzooxazol-2-one] showed an IC50 of under 500 nM.

With `Cc1cc(Nc2ncc(Cl)c(Nc3ccc4oc(=O)[nH]c4c3)n2)cc(C)c1C#N` [Compound I-69, 4-(5-chloro-4-(2-oxo-2,3-dihydrobenzo[d]oxazol-5-ylamino)pyrimidin-2-ylamino)-2,6-dimethylbenzonitrile] trifluoroacetate salt] the IC50 was under 500 nM.

Molecule `COc1ccc(Nc2ncc(F)c(Nc3ccc4oc(=O)[nH]c4c3)n2)cc1OCC(=O)NC1CC1` [Compound I-213, N2-[3-(cyclopropylaminocarbonylmethoxy)-4-methoxy]phenyl-5-fluoro-N4-(2-oxo-2,3-dihydro-1,3-benzoxazol-5-yl)-2,4-pyrimidinediamine] has an IC50 of under 500 nM.

Molecule `COC(=O)c1cc(Nc2ncc(C)c(Nc3ccc4oc(=O)[nH]c4c3)n2)cc(C)c1C` [Compound I-144, N2-(3,4-dimethyl-5-methoxycarbonyl)phenyl-5-methyl-N4-(2-oxo-2,3-dihydro-1,3-benzoxazol-5-yl)-2,4-pyrimidinediamine] has an IC50 of under 500 nM.

Molecule `COc1cc(C)cc(Nc2ncc(F)c(Nc3cc(F)c4oc(=O)[nH]c4c3)n2)c1` [Compound I-179, 5-(2-(3-methoxy-5-methylphenylamino)-5-fluoropyrimidin-4-ylamino)-7-fluorobenzo[d]oxazol-2(3H)-one trifluoroacetate salt] has an IC50 of over 10000 nM.
